Assay results as given in patent US10352938B2, “Macrocyclic HOPO chelators” (LUMIPHORE, INC., priority 2009, dated 2019).
Like-named read-outs stand apart in the source and are kept apart here. Marks after values point to notes of the source that are not given here. One block for each compound: values may come before it.

Columns and labels:
[1] = cited from earlier work; for λ: absorption maximum
[2] = cited from earlier work; for ϕEu: quantum yield
[3] = cited from earlier work; for τ (D2O): first component where two are printed; for τ (H2O): first (longer) component; for τ (H2O), second component: second (shorter) component of biexponential decay
[4] = Luminescence lifetimes (TRIS buffer, deuterated water, 77K) and inner sphere water number q; settings: for τ^D / τ^D, second component: deuterated solution; for τ^D / τ (77K): first component; for q / q, second species: inner sphere water molecules; for q: improved Horrock's equations, first species; for τ (77K) / τ (77K), second component: solid matrix at 77K (methanol/ethanol 1/4)
Method: Fluorescent decay signals can be acquired using an IBH DataStation Hub photon counting module and data analysis performed using the commercially available DAS 6 decay analysis software package from HORIBA Jobin Yvon IBH. Goodness of fit will be assessed by minimizing the reduced chi squared function, χ2, and a visual inspection of the weighted residuals. Each trace will use at least 10,000 points and the reported lifetime values result from at least three independent measurements.
In addition to the steady state emission spectra, the luminescence quantum yields and luminescence lifetimes of the Eu(III) complexes were also measured in aqueous solution with 0.1 M TRIS buffer pH=7.4 and in deuterated solution to estimate the number of inner sphere water molecule (i.e. q) using the improved Horrock's equations.
Luminescence lifetimes were also determined at 77K, in a solid matrix (Table 5), which have allowed us to determine whether back energy transfer between the donor triplet excited state and the acceptor manifold excited state of the lanthanide is present, or alternately whether quenching via low lying LMCT state occurs.

[5] = Stability titration (pEu) by competitive batch titration using DTPA; type: physicochemical; settings: for pEu value as compared to DTPA: in words
Method: Stability Titrations. The general procedure used to determine the pEu values of ligands was adapted from an already described study using Gd and are similar to that already reported for other complexes. Different volumes of a standardized DTPA stock solution were added to solutions of constant ligand, metal, and electrolyte concentrations. Concentrations of complexed ligand in each solution were determined by subtracting the remaining luminescence intensity after addition of DTPA to the initial luminescence intensity at identical pH and those concentrations were used as references for the analysis. Stability of compounds towards mM concentrations of EDTA and divalent cations will be assessed by incubation of the proposed molecules at nM concentration at room temperature in aqueous solutions of test ions. Time Resolved Fluorescent signal will be assessed at the outset of experiment and monitored over a minimum of 24 hours to determine signal change.

[6] = Luminescence quantum yield, emission and brightness in aqueous 0.1 M TRIS buffer; type: physicochemical; settings: for øTot: 0.1M TRIS buffer pH = 7.4; for Brightness: at maximum absorption, product of quantum yield and molar absorption coefficient, 0.1 M TRIS pH = 7.4; for overall quantum yield (in words): related to inner-sphere coordinated water
Method: Quantum Yield. Quantum yield will be measured using established methods. Fluorescence quantum yield Q are measured in diluted solution with an optical density lower than 0.1 using the following equation Qx/Qr=[Ar(λr)/Ax(λx)][nx^2/nr^2][Dx/Dr] were A is the absorbance at the excitation wavelength (λ), n the refractive index and D the integrated luminescence intensity. Subscripts “r” and “x” stand for reference and sample, respectively. References will be a quinine bisulfate in 1N sulfuric acid in aqueous solution (Qt=0.546)^1 and Ru(bpy)3 2C1 complexes in water solution (Qr=0.028)^2 for all complexes. A plot of integrated emission intensity (i.e. Dr) versus absorbance (i.e. Ar(λr)) yields a linear plot with a slope which can be equated to the reference quantum yield Qr. By analogy, for the unknown sample, a plot of integrated emission intensity (i.e. Dx) versus absorbance (i.e. Ax(λx)) yields a linear plot and Qx can then be evaluated. A minimum of at least two independent measurements will be averaged to derive a reliable value.

[7] = UV/visible absorption spectroscopy of Eu(III) complexes in TRIS buffer; type: physicochemical; settings: TRIS buffer pH = 7.4
Source text: Extinction Coefficient. A series of solutions of varied concentrations will be prepared from the solids based on mass and purity. The absorbance of each of these solutions at both 340 nm and at the appropriate acceptor wavelength will be measured and plotted according to Beer's Law (A=εcL where A is absorbance, ε is the extinction coefficient in M^−1 cm^−1, c is concentration, and L is path length in cm) with the fitted linear regression slope equal to […] on a plot of A as a function of C.
Each of the spectra have absorption maxima around 335-340 nm (FIG. 2). Those bands are composed of two electronic transitions; at higher energy, a purely π-π* transition and, at slightly lower energy (around ca. 320 nm), a π-π* transition with some n-π* character, as evidenced previously from TD-DFT calculations. […] This interaction gives maxima blue-shifting from 341 nm for [Eu(H(2,2)-1,2-HOPO)]^0 to 334 nm for [Eu(H(17O5,2)-1,2-HOPO)]^0 (as low as 332 nm for)[Eu(5LIN^Me-1,2HOPO)2]^0).

[8] = Triplet excited state energy from phosphorescence of Gd complexes at 77K; type: physicochemical; settings: solid matrix (methanol/ethanol 1/4), using the Gd complexes
Method: Estimation of the energies of the ligand based triplet excited state were determined using the Gd(III) complexes. Gadolinium was chosen because it is a 4f^7 lanthanide cation having a similar 4f electronic configuration and size as the europium cation (4f^6), but lacking an accessible metal based low energy electronic excited state. At room temperature, only a broad weak emission centered between 380-400 nm can be seen for the Gd(III) complexes. […] At 77K, in solid matrix, an emission band at approx. 500 nm can be seen (FIG. 8). This emission, red-shifted compared to the singlet excited state, can be assigned to phosphorescence from the triplet excited state, lower in energy than the singlet excited state observed at room temperature. Selective time gated phosphorescence spectra (delay 0.1 ms) of the gadolinium complexes at 77K are depicted in FIG. 8.

[9] = cited from earlier work
[10] = Calculation of Eu luminescence parameters (radiative lifetime, rate constants, efficiencies); type: physicochemical; settings: listed as [Eu(5LIN^Me-1,2-HOPO)2]
Method: In this equation, the ηISC ηET term is termed the sensitization efficiency, ηsens (ηsens=ηISC ηET). All the luminescence parameters τR (the pure radiative luminescence lifetime), kR and knR (the radiative and non-radiative constant rate) can be deduced. These parameters were calculated for five of the octadentate complexes and the model complex that present only one species in solution at pH=7.4 and are reported in Table 6.

[11] = number of inner sphere water molecules, first species
[12] = number of inner sphere water molecules
[13] = listed as [Eu(H(4,2)-1,2HOPO)]^0
[14] = competitive batch titration using DTPA in 0.1M TRIS pH = 7.4 and 0.1M KCl
[15] = listed as [Eu(H(3,2)-1,2HOPO)]^0
[16] = listed as [Eu(5LIN^Me-1,2HOPO)2]^0

τ^D [4, 13]: 803; μs
τ^D, second component [4, 13]: 338 μs
q [4, 13]: 0;
q, second species [4, 13]: 1.1
τ (77K) [4, 13]: 902; μs
τ (77K), second component [4, 13]: 645 μs
pEu value as compared to DTPA [5]: decreased
øTot ([6]; listed as [Eu(H(4,2)-1,2-HOPO)]^0): 0.031
øTot [6, 13]: 0.031
Brightness [6, 13]: 555 M⁻¹ cm⁻¹
overall quantum yield (in words) [6]: low quantum yields
ε [7, 13]: 17,900 M^−1 · cm^−1
λ^maxabs [7, 13]: 337 nm
T0-0 (triplet excited state energy) [8, 13]: 22,390 cm^−1
SMILES: O=C(NCCN(CCCCN(CCNC(=O)c1cccc(=O)n1O)CCNC(=O)c1cccc(=O)n1O)CCNC(=O)c1cccc(=O)n1O)c1cccc(=O)n1O [Eu(H4)]
λ [1]: 337 nm
ε ([1]; extinction coefficient): 17,900 M^1 cm^−1
ϕEu [2]: 0.031
τ (D2O) [3]: 803 μs
τ (D2O), second component [3]: 338 μs
τ (H2O) [3]: 649 μs
τ (H2O), second component [3]: 236 μs
q [3, 11]: 0
q, second species [3, 12]: 1.1
pEu [9, 14]: 18.4

τ^D [4, 15]: 811; μs
τ^D, second component [4, 15]: 369 μs
q ([4]; listed as [Eu(H(3,2)-1,2-HOPO)]^0): 0.3
q [4, 15]: 0.3;
q, second species [4, 15]: 1.0
τ (77K) [4, 15]: 1040; μs
τ (77K), second component [4, 15]: 781 μs
pEu value as compared to DTPA [5]: decreased
decrease in stability relative to Eu(H8-2) and Eu(H11-3) ([5]; pEu difference): 2.9 log unit
øTot [6, 15]: 0.037
Brightness [6, 15]: 655 M⁻¹ cm⁻¹
overall quantum yield (in words) [6]: low quantum yields
ε [7, 15]: 17,700 M^−1 · cm^−1
λ^maxabs [7, 15]: 339 nm
T0-0 (triplet excited state energy) [8, 15]: 21,900 cm^−1
SMILES: O=C(NCCN(CCCCN(CCNC(=O)c1cccc(=O)n1O)CCNC(=O)c1cccc(=O)n1O)CCNC(=O)c1cccc(=O)n1O)c1cccc(=O)n1O [Eu(H3)]
λ [1]: 339 nm
ε ([1]; extinction coefficient): 17,700 M^1 cm^−1
ϕEu [2]: 0.037
τ (D2O) [3]: 811 μs
τ (D2O), second component [3]: 369 μs
τ (H2O) [3]: 552 μs
τ (H2O), second component [3]: 253 μs
q [3, 11]: 0.3
q, second species [3, 12]: 1.0
pEu [9, 14]: 17.5

τ ([4]; aqueous TRIS pH = 7.4, listed as [Eu(5LIN^Me-1,2-HOPO)2]): 728 μs
τ^D [4, 16]: 1000^b μs
q [4, 16]: 0.1^b
τ (77K) [4, 16]: 860 μs
η^Eu ([10]; efficiency of metal centred luminescence): 0.412
knr ([10]; non-radiative rate constant): 807 s⁻¹
τrad ([10]; pure radiative luminescence lifetime, aqueous TRIS pH = 7.4): 1770 μs
kr ([10]; radiative rate constant): 566 s⁻¹
øTot [6, 16]: 0.173^b
ϕTot ([6]; aqueous TRIS pH = 7.4, complexes with only one species, listed as [Eu(5LIN^Me-1,2-HOPO)2]): 0.173
Brightness ([6]; listed as [Eu(5LIN^Me-1,2-HOPO)2]^0): 3400 M⁻¹ cm⁻¹
Brightness [6, 16]: 3120 M⁻¹ cm⁻¹
ε [7, 16]: 18,050 M^−1 · cm^−1
λ^maxabs [7, 16]: 332 nm
T0-0 (triplet excited state energy) [8, 16]: 22,010 cm^−1
SMILES: O=C(NCCN(CCCCN(CCNC(=O)c1cccc(=O)n1O)CCNC(=O)c1cccc(=O)n1O)CCNC(=O)c1cccc(=O)n1O)c1cccc(=O)n1O [Eu(5LiN^Me), reference compound]
λ [1]: 332 nm
λ ([1]; see reference [47]): 332 nm
ε ([1]; extinction coefficient): 18,750 M^1 cm^−1
ε ([1]; see reference [47], in M-1·cm-1 (unit assumed)): 18,750
ϕEu [2]: 0.17
ϕTot ([2]; see reference [47]): 0.17
τ (D2O) [3]: 1000 μs
τ (H2O) [3]: 728 μs
q [3, 11]: 0.1
q ([3]; see reference [47]): 0.1
τ ([3]; see reference [47]): 728 μs
τ^D ([3]; see reference [47]): 1000 μs
η^sens ([10]; sensitization efficiency): 0.420
pEu [9, 14]: 17.3
pEu ([9]; see reference [47], DTPA competition, 0.1M TRIS pH = 7.4, 0.1M KCl): 17.3
